For series [1] the following is noted: cited from earlier work.
The conditions of series [2]: cited from earlier work. This is another data set of the same source.
The nature of series [3]: Chlorinated DNAPL dissolution experiments with Citrus Burst-3. The series is classed as physicochemical. Conditions: water, thermodynamic from solid, in presence of chlorinated DNAPL, without cosolvent-surfactant, 25° C., read-out: Observed Solubility in Control Sample. From the text: In order to test the treatment of chlorinated compounds, a chlorinated solvent DNAPL was obtained from a site consisting of chlorinated solvents and chlorinated semi-volatile compounds. Composition of the chlorinated solvent DNAPL is presented based on determinations using USEPA Methods 8260 and 8270.
Carbon tetrachloride and tetrachloroethylene comprised more than 87 percent of the DNAPL. Being a saturated compound, carbon tetrachloride is generally a pervasive and difficult to degrade compound once introduced to the subsurface.

Structures are written as SMILES. Where two headings read alike, the source gives them in different places.

As to `Clc1c(Cl)c(Cl)c2c(Cl)c(Cl)c(Cl)c(Cl)c2c1Cl` [Octachloronaphthalene (OCN), Octachloronaphthalene], the “Pure Compound Aqueous Solubility” value in series [1] is “insoluble”.
Turning to `Cc1ccc(C)c(C)c1` [1,2,4-Trimethybenzene], the “log Kow” value in series [2] (Table 2) is listed as 3.7.
For `CCc1ccccc1` [Ethylbenzene], in series [2] (Table 2), the “log Kow” value was 3.1.
Regarding `ClC(Cl)(Cl)Cl` [Carbon Tetrachloride (CTC), Carbon Tetrachloride], the “Pure Compound Aqueous Solubility” value in series [1] was 129 µg/mL. Also, in series [3], the solubility – broadly, the concentration that dissolves in the medium under given conditions – at 48 h was 100 µg/mL. In addition, in series [2] (Table 5), the “log Kow” value is given as 2.83.
Regarding `ClC(Cl)=C(Cl)C(Cl)=C(Cl)Cl` [Hexachlorobutadiene (HCBD), Hexachlorobutadiene], in series [2] (Table 5), the “log Kow” value is recorded as 4.90.
For `Cc1ccc2ccccc2c1` [2-Methylnaphthalene], in series [2] (Table 2), the “log Kow” value is recorded as 3.9.

(Values after patent US9895730B2, “Method for extraction and surfactant enhanced subsurface contaminant recovery” (priority 2007, dated 2018).)
